Results taken from patent US10253039B2, “Inhibitors of bacterial DNA gyrase with efficacy against gram-negative bacteria” (priority 2014, dated 2019).
Converted amounts (≈) assume the structure as drawn.

Key:
Assay type in all cases: cell-based
E. coli BW25113 = test: MIC, microdilution in 96-well plates; conditions: Escherichia coli, BW25113, B: E. coli BW25113; read-out: MIC
Method in brief: (§1)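 Inoculum 1:10000 (LB, log-phase subculture). Triplicate twofold dilutions plus DMSO column. 37° C., shaken, 16-18 h. Lowest non-turbid well = MIC. CLSI method.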

Edwardsiella tarda = test: MIC, microdilution in 96-well plates; conditions: D: Edwardsiella tarda
Method in brief: as §1

[1] = test system: Staphylococcus saprophyticus subsp. saprophyticus; test: MIC, 20-strain panel
Method in brief: as §1

E. coli MG1655 = test: MIC, 20-strain panel; conditions: Escherichia coli, MG1655, A: E. coli MG1655; read-out: MIC
Method in brief: as §1

[2] = test system: Klebsiella pneumoniae subsp. pneumoniae; test: MIC, 20-strain panel; conditions: E: Klebsiella pneumoniae subsp. pneumoniae
Method in brief: as §1

[3] = test system: Staphylococcus aureus subsp. aureus; test: MIC, 20-strain panel; conditions: H: Staphylococcus aureus subsp. aureus, read-out: MIC
Method in brief: as §1

E. coli JW5503 (deltolC) = test: MIC, 20-strain panel; conditions: Escherichia coli, C: E. coli JW5503 (deltolC)
Method in brief: as §1

[4] = test system: Staphylococcus epidermidis; test: MIC, 20-strain panel
Method in brief: as §1

Streptococcus pyogenes = test: MIC, 20-strain panel
Method in brief: as §1

Streptococcus agalactiae = test: MIC, 20-strain panel
Method in brief: as §1

[5] = test system: Salmonella enterica subsp. enterica typhimurium; test: MIC, 20-strain panel; conditions: F: Salmonella enterica subsp. enterica Typhimurium
Method in brief: as §1

Shigella flexneri = test: MIC, 20-strain panel; conditions: G: Shigella flexneri
Method in brief: as §1

Structure (SMILES) | MIC (E. coli BW25113) | MIC (Edwardsiella tarda) | MIC [1] | MIC (E. coli MG1655) | MIC [2] | MIC [3] | MIC (E. coli JW5503 (deltolC)) | MIC [4] | MIC (Streptococcus pyogenes) | MIC (Streptococcus agalactiae) | MIC [5] | MIC (Shigella flexneri)
O=S(=O)(N[C@@H]1CCN(Cc2ccc(OC(F)F)cc2)C1)c1cccc(C(F)(F)F)c1 [Compound 87] | > 8 µg/mL | > 8 µg/mL | > 8 µg/mL | > 8 µg/mL | > 8 µg/mL | > 8 µg/mL | 2 µg/mL (≈ 4.44 µM) | > 8 µg/mL | > 8 µg/mL | > 8 µg/mL | > 8 µg/mL | > 8 µg/mL
COc1cc(CN2CC[C@@H](NS(=O)(=O)c3cccc(OC(F)(F)F)c3)C2)ccc1OC(C)C [Compound 88] | > 8 µg/mL | > 8 µg/mL | > 8 µg/mL | > 8 µg/mL | > 8 µg/mL | > 8 µg/mL | > 8 µg/mL | > 8 µg/mL | > 8 µg/mL | > 8 µg/mL | > 8 µg/mL | > 8 µg/mL
O=S(=O)(N[C@@H]1CCN(Cc2ccc(OCC(F)F)cc2)C1)c1cccc(OC(F)(F)F)c1 [Compound 89] | > 8 µg/mL | > 8 µg/mL | > 8 µg/mL | > 8 µg/mL | > 8 µg/mL | > 8 µg/mL | 0.5 µg/mL (≈ 1.04 µM) | > 8 µg/mL | > 8 µg/mL | > 8 µg/mL | 8 µg/mL (≈ 16.7 µM) | > 8 µg/mL
O=S(=O)(N[C@@H]1CCN(Cc2ccc(OC3CC3)cc2)C1)c1cc(C(F)(F)F)ccc1Cl [Compound 90] | ~8 µg/mL (≈ 16.8 µM) | > 8 µg/mL | > 8 µg/mL | > 8 µg/mL | > 8 µg/mL | > 8 µg/mL | < 0.0625 µg/mL | > 8 µg/mL | > 8 µg/mL | > 8 µg/mL | 4 µg/mL (≈ 8.42 µM) | ~8 µg/mL (≈ 16.8 µM)
CC(C)Oc1ccc(CN2CC[C@@H](NS(=O)(=O)c3cc(Cl)cc(C(F)(F)F)c3)C2)cc1 [Compound 92] | > 8 µg/mL | > 8 µg/mL | > 8 µg/mL | > 8 µg/mL | > 8 µg/mL | > 8 µg/mL | 8 µg/mL (≈ 16.8 µM) | > 8 µg/mL | > 8 µg/mL | > 8 µg/mL | > 8 µg/mL | > 8 µg/mL
CC(C)Oc1ccc(CN2CC[C@@H](NS(=O)(=O)c3cnc4ccccc4c3)C2)cc1 [Compound 93] | > 8 µg/mL | > 8 µg/mL | > 8 µg/mL | > 8 µg/mL | > 8 µg/mL | > 8 µg/mL | > 8 µg/mL | > 8 µg/mL | > 8 µg/mL | > 8 µg/mL | > 8 µg/mL | > 8 µg/mL
O=S(=O)(N[C@@H]1CCN(Cc2ccc(OC3CC3)cc2)C1)c1cc(Cl)cc(C(F)(F)F)c1 [Compound 94] | > 8 µg/mL | > 8 µg/mL | > 8 µg/mL | > 8 µg/mL | > 8 µg/mL | > 8 µg/mL | 8 µg/mL (≈ 16.8 µM) | > 8 µg/mL | > 8 µg/mL | > 8 µg/mL | > 8 µg/mL | > 8 µg/mL
O=S(=O)(N[C@@H]1CCN(Cc2ccc(OC3CC3)cc2)C1)c1cnc2ccccc2c1 [Compound 95] | > 8 µg/mL | > 8 µg/mL | > 8 µg/mL | > 8 µg/mL | > 8 µg/mL | > 8 µg/mL | > 8 µg/mL | > 8 µg/mL | > 8 µg/mL | > 8 µg/mL | > 8 µg/mL | > 8 µg/mL
O=S(=O)(N[C@@H]1CCN(Cc2ccc(OC3CC3)cc2)C1)c1cccc2cccnc12 [Compound 96] | > 8 µg/mL | > 8 µg/mL | > 8 µg/mL | > 8 µg/mL | > 8 µg/mL | > 8 µg/mL | 1 µg/mL (≈ 2.36 µM) | > 8 µg/mL | > 8 µg/mL | > 8 µg/mL | ~8 µg/mL (≈ 18.9 µM) | > 8 µg/mL
N#Cc1cccc(S(=O)(=O)N[C@@H]2CCN(Cc3ccc(N4CCCC4=O)cc3)C2)c1 [Compound 97] | > 8 µg/mL | > 8 µg/mL | > 8 µg/mL | > 8 µg/mL | > 8 µg/mL | > 8 µg/mL | 4 µg/mL (≈ 9.42 µM) | > 8 µg/mL | > 8 µg/mL | > 8 µg/mL | > 8 µg/mL | > 8 µg/mL
CC(C)Oc1c(Cl)cc(CN2CC[C@@H](NS(=O)(=O)c3cccc(C(F)(F)F)c3)C2)cc1Cl [Compound 98] | > 8 µg/mL | > 8 µg/mL | > 8 µg/mL | > 8 µg/mL | > 8 µg/mL | > 8 µg/mL | > 8 µg/mL | > 8 µg/mL | > 8 µg/mL | > 8 µg/mL | > 8 µg/mL | > 8 µg/mL
